{
  "source": "patent US11300570B2",
  "about": "“Therapeutic and diagnostic methods for cancer” (Genentech, Inc., priority 2016, dated 2022)",
  "key": {"[1]": {"system": "metastatic urothelial carcinoma (mUC)", "assay": "IMvigor210 study of atezolizumab in metastatic urothelial carcinoma, efficacy by tTMB", "format": "in vivo, human", "experimental": "To evaluate this idea, the association between tTMB and response to atezolizumab was evaluated in several distinct cancer types. As described in Example 2, high tTMB was associated with response to atezolizumab in 1 L and 2 L+ NSCLC, including at tTMB cutoffs of ≥16 mut/Mb and ≥20 mut/Mb. […] Tissue TMB was associated with improved ORR in 1 L and 2 L mUC patients at the ≥16 mut/Mb and ≥20 mut/Mb cutoffs in the IMvigor210 study (FIG. 17)."}, "[2]": {"system": "locally advanced or metastatic NSCLC (PD-L1-selected patients)", "assay": "BIRCH and FIR Phase II single-arm trials of atezolizumab monotherapy in PD-L1-selected NSCLC, efficacy by tTMB", "format": "in vivo, human", "conditions": "for Median OS / Median PFS: 1L BIRCH/FIR; for ORR / Odds Ratio for Response / OS HR (95% CI) / PFS HR (95% CI): BIRCH and FIR 2L+; for Odds Ratio for Response / OS HR (95% CI) / PFS HR (95% CI): TMB-high vs TMB-low; for OS HR (95% CI) / PFS HR (95% CI): unadjusted, unstratified", "experimental": "The correlation between the level of somatic mutations detected in a tumor tissue sample (e.g., mutation load, also referred to as tissue tumor mutational burden (tTMB)) and PD-L1 expression and their independent contribution to treatment with PD-L1 axis binding antagonists in non-small cell lung cancer (NSCLC) tumors was evaluated.\nPre-treatment tumor specimens from 465 patients with 2 L+ NSCLC who were enrolled in one of the three Phase II clinical trials (BIRCH, FIR, and POPLAR; Table 4 and 5), in which atezolizumab was administered as a monotherapy, were evaluated for tissue tumor mutational burden (tTMB). Tumor specimens from 1 L NSCLC patients were also evaluated in the BIRCH and FIR studies.\nThe efficacy analyses of the BIRCH population excluded these two untreated patients. Patients were eligible for enrollment in the BIRCH study if they had locally advanced or metastatic (e.g., stage IIIB, stage IV, or recurrent) NSCLC; a PD-L1-positive tumor status determined by an immunohistochemistry (IHC) assay based on PD-L1 expression in tumor infiltrating immune cells (IC) and/or tumor cells (TC); measurable disease, as defined by RECIST v1.1; and an Eastern Cooperative Oncology Group (ECOG) performance status of 0 or 1. Patients received atezolizumab at a dose of 1200 mg intravenously every three weeks for as long as patients were experiencing clinical benefit, i.e., in the absence of unacceptable toxicity or symptomatic deterioration attributed to disease progression.\nThe FIR (Clinical Trial ID No.: NCT01846416) patient population evaluated for tTMB consisted of 33 patients. Patients were eligible for enrollment in the FIR study if they had stage IIIB (e.g., not eligible for treatment by definitive chemoradiotherapy), stage IV, or recurrent NSCLC; a PD-L1-positive status as determined by an IHC assay; an ECOG performance status of 0 or 1; a life expectancy 12 weeks; measurable disease, as defined by RECIST v1.1; and adequate hematologic and end organ function. Patients received an intravenous dose of 1200 mg atezolizumab on Day 1 of each 21-day cycle until disease progression.\nData from the single-arm, PD-L1-selected trials BIRCH and FIR were combined and analyzed to examine the association between tTMB and clinical outcomes among PD-L1-selected patients. Data from the randomized, PD-L1-unselected trial, POPLAR, were analyzed separately and treatment effects between the atezolizumab- and docetaxel-treatment arms were compared.\nTo identify somatic mutations, tumor samples (e.g., archival tumor samples) were processed as described in Frampton et al. Nat. Biotechnol. 31:1023-31, 2013. Sequencing libraries were constructed to sequence and analyze samples. In addition to standard mutation processing, a mutation load estimation algorithm was applied that, based on the number of somatic mutations and/or rearrangements detected in Table 1 or Table 2, respectively, extrapolates to the exome or the genome as a whole. For purposes of mutation load estimation, all coding short variant alterations, base substitutions, and indels detected in the genes listed in Table 1 and Table 2 were counted. Further, all coding alterations (base substitutions and indels), including synonymous alterations, with the exception of known oncogenic driver mutations, in the genes listed in Table 1 and Table 2 were counted. […]"}, "[3]": {"conditions": "BEP (evaluable for TMB) (n = 102)"}},
  "data": [
    {"substance": "atezolizumab", "values": [
      {"measurement": "association of increased tTMB with ORR, PFS and OS", "setting": "[1]; 1L cisplatin-ineligible mUC, cohort 1 of IMvigor210", "result": "associated with increased ORR (FIG. 15A), longer PFS (FIG. 15B), and longer OS (FIG. 15C)"},
      {"measurement": "association of increased tTMB with ORR, PFS and OS", "setting": "[1]; 2L+ mUC, cohort 2 of IMvigor210", "result": "associated with increased ORR (FIG. 16A), longer PFS (FIG. 16B), and longer OS (FIG. 16C)"},
      {"measurement": "ORR", "setting": "[1]; IMvigor210 1L cisplatin-ineligible and 2L+ mUC, 6 patients both TMB-high (≥16 mut/Mb) and MSI-high", "result": 83, "unit": "%"},
      {"measurement": "Median OS", "setting": "[2]; [3]", "result": 20.1, "unit": "months"},
      {"measurement": "Median PFS", "setting": "[2]; [3]", "result": 7.0, "unit": "months"},
      {"measurement": "Median OS", "setting": "[2]; ITT (n = 173)", "result": 20.1, "unit": "months"},
      {"measurement": "Median PFS", "setting": "[2]; ITT (n = 173)", "result": 6.9, "unit": "months"},
      {"measurement": "Median PFS", "setting": "[2]; tTMB score <9 mut/Mb (n = 45)", "result": 4, "unit": "months"},
      {"measurement": "Median OS", "setting": "[2]; tTMB score <16 mut/Mb (n = 85)", "result": 20.1, "unit": "months"},
      {"measurement": "Median PFS", "setting": "[2]; tTMB score <16 mut/Mb (n = 85)", "result": 6, "unit": "months"},
      {"measurement": "Median OS", "setting": "[2]; tTMB score ≥9 mut/Mb (n = 57)", "result": 20.1, "unit": "months"},
      {"measurement": "Median PFS", "setting": "[2]; tTMB score ≥9 mut/Mb (n = 57)", "result": 8.3, "unit": "months"},
      {"measurement": "Median PFS", "setting": "[2]; tTMB score ≥16 mut/Mb (n = 17)", "result": 11.1, "unit": "months"},
      {"measurement": "ORR", "setting": "[2]; TMB-high (at or above 25% tTMB quantile cutoff)", "result": 22, "unit": "%"},
      {"measurement": "ORR", "setting": "[2]; TMB-high (at or above 50% (median) tTMB cutoff)", "result": 25, "unit": "%"},
      {"measurement": "ORR", "setting": "[2]; TMB-high (at or above 75% tTMB quantile cutoff)", "result": 29, "unit": "%"},
      {"measurement": "Odds Ratio for Response", "setting": "[2]; 25% tTMB cutoff", "result": 2.14},
      {"measurement": "OS HR (95% CI)", "setting": "[2]; 25% tTMB cutoff", "result": "0.92 (0.64, 1.30)"},
      {"measurement": "PFS HR (95% CI)", "setting": "[2]; 25% tTMB cutoff", "result": "0.79 (0.60, 1.00)"},
      {"measurement": "Odds Ratio for Response", "setting": "[2]; 50% (median) tTMB cutoff", "result": 2.11},
      {"measurement": "OS HR (95% CI)", "setting": "[2]; 50% (median) tTMB cutoff", "result": "0.87 (0.65, 1.16)"},
      {"measurement": "PFS HR (95% CI)", "setting": "[2]; 50% (median) tTMB cutoff", "result": "0.64 (0.50, 0.80)"},
      {"measurement": "Odds Ratio for Response", "setting": "[2]; 75% tTMB cutoff", "result": 2.20},
      {"measurement": "OS HR (95% CI)", "setting": "[2]; 75% tTMB cutoff", "result": "0.70 (0.49, 1.00)"},
      {"measurement": "PFS HR (95% CI)", "setting": "[2]; 75% tTMB cutoff", "result": "0.5 (0.38, 0.67)"},
      {"measurement": "ORR", "setting": "[2]; TMB-low (below 25% tTMB quantile cutoff)", "result": 11, "unit": "%"},
      {"measurement": "ORR", "setting": "[2]; TMB-low (below 50% (median) tTMB cutoff)", "result": 14, "unit": "%"},
      {"measurement": "ORR", "setting": "[2]; TMB-low (below 75% tTMB quantile cutoff)", "result": 16, "unit": "%"},
      {"measurement": "association of tissue TMB with efficacy", "setting": "[2]; PD-L1-selected 2L+ patients with NSCLC, BIRCH and FIR", "result": "associated with improved efficacy"},
      {"measurement": "association of tTMB with efficacy", "setting": "[2]; all lines evaluated (1L and 2L+) in FIR and BIRCH", "result": "associated with improved efficacy"}
    ]}
  ]
}
